Measurements published in patent US9260408B2, “Dihydroquinoline-2-one derivatives” (Hoffmann-La Roche Inc., priority 2011, dated 2016).

Assays:
human CYP11B1 = biological target: T1, human CYP11B1 (Homo sapiens, UniProt P15538); assay: G-402 cellular enzyme assay, human CYP11B1 (cortisol release, HTRF); format: cell-based; conditions: G-402 cells expressing human CYP11B1; 1 μM Deoxycortisol
T1 construct: expressed in transfected cells
T1 sequence (P15538 25-503): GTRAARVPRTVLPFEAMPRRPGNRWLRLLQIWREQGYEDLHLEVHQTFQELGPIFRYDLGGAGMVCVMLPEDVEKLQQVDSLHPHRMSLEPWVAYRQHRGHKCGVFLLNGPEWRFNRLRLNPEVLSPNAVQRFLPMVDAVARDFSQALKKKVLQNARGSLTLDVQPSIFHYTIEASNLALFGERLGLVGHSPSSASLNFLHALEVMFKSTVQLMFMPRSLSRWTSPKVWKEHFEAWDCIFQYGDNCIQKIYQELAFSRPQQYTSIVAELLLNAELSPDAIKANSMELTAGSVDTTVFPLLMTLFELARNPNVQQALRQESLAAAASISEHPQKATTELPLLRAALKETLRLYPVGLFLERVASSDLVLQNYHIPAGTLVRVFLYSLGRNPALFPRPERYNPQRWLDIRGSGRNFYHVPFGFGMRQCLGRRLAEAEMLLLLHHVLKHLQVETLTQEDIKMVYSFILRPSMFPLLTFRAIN
Procedure, shortened: (§1)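 G-402 cells stably expressing human CYP11B2 or CYP11B1, in DMEM/F12 with 2.5% charcoal-treated FCS, were incubated 16 h with compound plus 1 μM deoxycorticosterone (CYP11B2) or 1 μM deoxycortisol (CYP11B1). Aldosterone or cortisol in the supernatant measured by HTRF; EC50 from a 4-parameter MMF fit.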

human CYP11B2 = biological target: T2, human CYP11B2 (Homo sapiens, UniProt P19099); assay: G-402 cellular enzyme assay, human CYP11B2 (aldosterone release, HTRF); format: cell-based; conditions: G-402 cells expressing human CYP11B2; 1 μM Deoxycorticosterone
T2 construct: expressed in transfected cells
T2 sequence (P19099 25-503): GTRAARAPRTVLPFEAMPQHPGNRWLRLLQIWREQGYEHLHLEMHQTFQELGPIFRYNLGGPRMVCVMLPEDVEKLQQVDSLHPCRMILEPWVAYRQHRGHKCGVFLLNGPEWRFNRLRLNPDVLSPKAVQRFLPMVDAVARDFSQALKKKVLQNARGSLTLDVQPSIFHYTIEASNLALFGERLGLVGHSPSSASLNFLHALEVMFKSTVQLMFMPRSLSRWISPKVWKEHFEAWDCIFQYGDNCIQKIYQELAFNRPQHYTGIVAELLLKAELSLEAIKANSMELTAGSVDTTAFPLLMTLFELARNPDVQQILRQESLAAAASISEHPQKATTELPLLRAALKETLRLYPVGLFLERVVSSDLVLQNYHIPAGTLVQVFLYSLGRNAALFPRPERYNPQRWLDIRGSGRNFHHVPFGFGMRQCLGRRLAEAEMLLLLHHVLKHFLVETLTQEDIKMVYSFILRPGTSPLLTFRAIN
Procedure, shortened: as §1

Row | SMILES | EC50 (human CYP11B1) [nM] | EC50 (human CYP11B2) [nM]
1 | CCS(=O)(=O)NCc1cncc(-c2cc(Cl)c3c(c2)CCC(=O)N3C)c1 [Example 209, Ethanesulfonic acid [5-(8-chloro-1-methyl-2-oxo-1,2,3,4-tetrahydro-quinolin-6-yl)-pyridin-3-ylmethyl]-amide] | 7540 | 162
2 | CN1C(=O)CCc2cc(-c3cncc(CN4CCS(=O)(=O)CC4)c3)ccc21 [Example 20] | 20 | 3
3 | Cc1c(CNC(=O)c2ncccc2Cl)cncc1-c1ccc2c(c1)CCC(=O)N2C [Example 224, 3-Chloro-pyridine-2-carboxylic acid [4-methyl-5-(1-methyl-2-oxo-1,2,3,4-tetrahydro-quinolin-6-yl)-pyridin-3-ylmethyl]-amide] | 173 | 6
4 | CN1C(=O)CCc2cc(-c3cncc(CNS(=O)(=O)c4ccc(Cl)nc4)c3)ccc21 [Example 158, 6-Chloro-pyridine-3-sulfonic acid [5-(1-methyl-2-oxo-1,2,3,4-tetrahydro-quinolin-6-yl)-pyridin-3-ylmethyl]-amide] | 6430 | 239
5 | CCS(=O)(=O)N1CCC[C@H](Oc2cncc(-c3ccc4c(c3)CCC(=O)N4C)c2)C1 [Example 160, 6-[5-((S)-1-Ethanesulfonyl-piperidin-3-yloxy)-pyridin-3-yl]-1-methyl-3,4-dihydro-1H-quinolin-2-one] | 716 | 113
6 | CCOCCN(Cc1cncc(-c2ccc3c(c2)CCC(=O)N3C)c1)S(=O)(=O)CC [Example 185, Ethanesulfonic acid (2-ethoxy-ethyl)-[5-(1-methyl-2-oxo-1,2,3,4-tetrahydro-quinolin-6-yl)-pyridin-3-ylmethyl]-amide] | 9290 | 633
7 | CCS(=O)(=O)NC(C)c1cncc(-c2ccc3c(c2)CCC(=O)N3C)c1 (single isomer, unassigned) [Example 174, Ethanesulfonic acid {(S or R)-1-[5-(1-methyl-2-oxo-1,2,3,4-tetrahydro-quinolin-6-yl)-pyridin-3-yl]-ethyl}-amide] | 1230 | 33
8 | CN1C(=O)CCc2cc(-c3cncc(N4CCC[C@@H]4CO)c3)ccc21 [Example 6, 6-[5-((R)-2-Hydroxymethyl-pyrrolidin-1-yl)-pyridin-3-yl]-1-methyl-3,4-dihydro-1H-quinolin-2-one] | 3340 | 98
9 | Cc1noc(C(F)(F)F)c1C(=O)NCc1cncc(-c2ccc3c(c2)CCC(=O)N3C)c1 [Example 136] | 2430 | 47
10 | CN(Cc1cncc(-c2ccc3c(c2)CCC(=O)N3C)c1)C(=O)c1cnn(C)c1 [Example 198, 1-Methyl-1H-pyrazole-4-carboxylic acid methyl-[5-(1-methyl-2-oxo-1,2,3,4-tetrahydro-quinolin-6-yl)-pyridin-3-ylmethyl]-amide] | 188 | 7
11 | CN1C(=O)CCc2cc(-c3cncc(CN4CCC[C@H]4CO)c3)ccc21 [Example 7, 6-[5-((S)-2-Hydroxymethyl-pyrrolidin-1-ylmethyl)-pyridin-3-yl]-1-methyl-3,4-dihydro-1H-quinolin-2-one] | 570 | 56
12 | CN1C(=O)CCc2cc(-c3cncc(N4CCC[C@H]4Cn4cncn4)c3)ccc21 [Example 11] | 410 | 76
13 | CCC1(NCc2cncc(-c3ccc4c(c3)CCC(=O)N4C)c2)COC1 [Example 206, 6-{5-[(3-Ethyl-oxetan-3-ylamino)-methyl]-pyridin-3-yl}-1-methyl-3,4-dihydro-1H-quinolin-2-one] | 237 | 10
14 | CCC(NS(=O)(=O)CC)c1cncc(-c2ccc3c(c2)CCC(=O)N3C)c1 (racemic) [Example 180, (rac)-Ethanesulfonic acid {1-[5-(1-methyl-2-oxo-1,2,3,4-tetrahydro-quinolin-6-yl)-pyridin-3-yl]-propyl}-amide] | 1890 | 33
15 | CN(Cc1cncc(-c2cc3c4c(c2)CCN4C(=O)CC3)c1)C(=O)c1ncccc1Cl [Example 237, 3-Chloro-pyridine-2-carboxylic acid methyl-[5-(4-oxo-1,2,5,6-tetrahydro-4H-pyrrolo[3,2,1-ij]quinolin-8-yl)-pyridin-3-ylmethyl]-amide] | 143 | 8
16 | CN1C(=O)CCc2cc(-c3cncc(CNS(=O)(=O)C(F)(F)F)c3)ccc21 [Example 163, C,C,C-Trifluoro-N-[5-(1-methyl-2-oxo-1,2,3,4-tetrahydro-quinolin-6-yl)-pyridin-3-ylmethyl]-methanesulfonamide] | 2390 | 61

Next, values leading:

Row | EC50 (human CYP11B1) [nM] | EC50 (human CYP11B2) [nM] | SMILES
17 | 613 | 23 | Cc1cc(F)cc(C)c1C(=O)NCc1cncc(-c2ccc3c(c2)CCC(=O)N3C)c1 [Example 93]
18 | > 3000 | 430 | CC(=O)OCC(=O)Nc1cncc(-c2ccc3c(c2)CCC(=O)N3C)c1 [Example 2, Acetic acid [5-(1-methyl-2-oxo-1,2,3,4-tetrahydro-quinolin-6-yl)-pyridin-3-ylcarbamoyl]-methyl ester]
19 | 1000 | 271 | CN1C(=O)CCc2cc(-c3cncc(O[C@H]4CCCN(C(=O)OC(C)(C)C)C4)c3)ccc21 [Example 49, (S)-3-[5-(1-Methyl-2-oxo-1,2,3,4-tetrahydro-quinolin-6-yl)-pyridin-3-yloxy]-piperidine-1-carboxylic acid tert-butyl ester]
20 | 420 | 9 | CCS(=O)(=O)NC1(c2cncc(-c3cc4c(cc3F)N(C)C(=O)CC4)c2)CC1 [Example 171, Ethanesulfonic acid {1-[5-(7-fluoro-1-methyl-2-oxo-1,2,3,4-tetrahydro-quinolin-6-yl)-pyridin-3-yl]-cyclopropyl}-amide]
21 | 220 | 7 | CN1C(=O)CCc2cc(-c3cncc(NCCO)n3)ccc21 [Example 24]
22 | 16 | 1 | CN1C(=O)CCc2cc(-c3cncc(OCCNC(=O)OC(C)(C)C)c3)c(F)cc21 [Example 232, {2-[5-(7-Fluoro-1-methyl-2-oxo-1,2,3,4-tetrahydro-quinolin-6-yl)-pyridin-3-yloxy]-ethyl}-carbamic acid tert-butyl ester]
23 | 750 | 15 | COc1cc(C(=O)NCc2cncc(-c3ccc4c(c3)CCC(=O)N4C)c2)on1 [Example 40, 3-Methoxy-isoxazole-5-carboxylic acid [5-(1-methyl-2-oxo-1,2,3,4-tetrahydro-quinolin-6-yl)-pyridin-3-ylmethyl]-amide]
24 | 1340 | 30 | CCS(=O)(=O)NCc1cncc(-c2ccc3c(c2F)CCC(=O)N3C)c1 [Example 210, Ethanesulfonic acid [5-(5-fluoro-1-methyl-2-oxo-1,2,3,4-tetrahydro-quinolin-6-yl)-pyridin-3-ylmethyl]-amide]
25 | 380 | 3 | CN1C(=O)CCc2cc(-c3cncc(C4(NC(=O)c5ncccc5Cl)CC4)c3)c(F)cc21 [Example 142]
26 | 69 | 5 | CN1C(=O)CCc2cc(-c3cncc(C4=CCN(C(=O)OC(C)(C)C)CC4)c3)ccc21 [Example 247, 5-(1-Methyl-2-oxo-1,2,3,4-tetrahydro-quinolin-6-yl)-3′,6′-dihydro-2′H-[3,4′]bipyridinyl-1′-carboxylic acid tert-butyl ester]
27 | 223 | 42 | CC(C)CC(=O)NCc1cncc(-c2ccc3c(c2)CCC(=O)N3C)c1 [Example 77]
28 | 14 | 1 | Cc1cccnc1C(=O)NCc1cncc(-c2ccc3c(c2)CCC(=O)N3C)c1 [Example 115, 3-Methyl-pyridine-2-carboxylic acid [5-(1-methyl-2-oxo-1,2,3,4-tetrahydro-quinolin-6-yl)-pyridin-3-ylmethyl]-amide]
29 | > 3000 | 715 | CN1C(=O)CCc2cc(-c3cncc(NC(=O)CO)c3)ccc21 [Example 3, 2-Hydroxy-N-[5-(1-methyl-2-oxo-1,2,3,4-tetrahydro-quinolin-6-yl)-pyridin-3-yl]-acetamide]
30 | 154 | 1 | Cc1oncc1C(=O)NCc1cncc(-c2cc3c(cc2F)N(C)C(=O)CC3)c1C [Example 259, 5-Methyl-isoxazole-4-carboxylic acid [5-(7-fluoro-1-methyl-2-oxo-1,2,3,4-tetrahydro-quinolin-6-yl)-4-methyl-pyridin-3-ylmethyl]-amide]
